Assay [1] concerns the target T1, Phosphatidylinositol 4,5-bisphosphate 3-kinase catalytic subunit beta isoform (Homo sapiens, UniProt P42338). The assay is described as follows: Inhibition of PI3Kbeta in human PC3 cells assessed as suppression of AKT phosphorylation at Thr308 after 60 mins by ELISA. It is filed as cell-based, PC-3. A general note: ELISA stands for enzyme-linked immunosorbent assay.

The target in assay [2] is T1, Phosphatidylinositol 4,5-bisphosphate 3-kinase catalytic subunit beta isoform. The assay is described as follows: Inhibition of PI3Kbeta in human PC3 cells assessed as suppression of AKT phosphorylation at Ser473 after 60 mins by ELISA. It is filed as cell-based, PC-3.
Assay [3] concerns the target Phosphatidylinositol 4,5-bisphosphate 3-kinase catalytic subunit alpha isoform (Homo sapiens, UniProt P42336). Description: Binding affinity to human PI3Kalpha (108 to 1068 residues) expressed in mammalian expression system by KINOMEscan assay.
For assay [4], the target named is Phosphatidylinositol 4,5-bisphosphate 3-kinase catalytic subunit gamma isoform (Homo sapiens, UniProt P48736). Description: Binding affinity to human PI3Kgamma (144 to 1102 residues) expressed in mammalian expression system by KINOMEscan assay.
Sequence of Phosphatidylinositol 4,5-bisphosphate 3-kinase catalytic subunit gamma isoform (P48736 whole entry, the tested form may be a part, canonical isoform): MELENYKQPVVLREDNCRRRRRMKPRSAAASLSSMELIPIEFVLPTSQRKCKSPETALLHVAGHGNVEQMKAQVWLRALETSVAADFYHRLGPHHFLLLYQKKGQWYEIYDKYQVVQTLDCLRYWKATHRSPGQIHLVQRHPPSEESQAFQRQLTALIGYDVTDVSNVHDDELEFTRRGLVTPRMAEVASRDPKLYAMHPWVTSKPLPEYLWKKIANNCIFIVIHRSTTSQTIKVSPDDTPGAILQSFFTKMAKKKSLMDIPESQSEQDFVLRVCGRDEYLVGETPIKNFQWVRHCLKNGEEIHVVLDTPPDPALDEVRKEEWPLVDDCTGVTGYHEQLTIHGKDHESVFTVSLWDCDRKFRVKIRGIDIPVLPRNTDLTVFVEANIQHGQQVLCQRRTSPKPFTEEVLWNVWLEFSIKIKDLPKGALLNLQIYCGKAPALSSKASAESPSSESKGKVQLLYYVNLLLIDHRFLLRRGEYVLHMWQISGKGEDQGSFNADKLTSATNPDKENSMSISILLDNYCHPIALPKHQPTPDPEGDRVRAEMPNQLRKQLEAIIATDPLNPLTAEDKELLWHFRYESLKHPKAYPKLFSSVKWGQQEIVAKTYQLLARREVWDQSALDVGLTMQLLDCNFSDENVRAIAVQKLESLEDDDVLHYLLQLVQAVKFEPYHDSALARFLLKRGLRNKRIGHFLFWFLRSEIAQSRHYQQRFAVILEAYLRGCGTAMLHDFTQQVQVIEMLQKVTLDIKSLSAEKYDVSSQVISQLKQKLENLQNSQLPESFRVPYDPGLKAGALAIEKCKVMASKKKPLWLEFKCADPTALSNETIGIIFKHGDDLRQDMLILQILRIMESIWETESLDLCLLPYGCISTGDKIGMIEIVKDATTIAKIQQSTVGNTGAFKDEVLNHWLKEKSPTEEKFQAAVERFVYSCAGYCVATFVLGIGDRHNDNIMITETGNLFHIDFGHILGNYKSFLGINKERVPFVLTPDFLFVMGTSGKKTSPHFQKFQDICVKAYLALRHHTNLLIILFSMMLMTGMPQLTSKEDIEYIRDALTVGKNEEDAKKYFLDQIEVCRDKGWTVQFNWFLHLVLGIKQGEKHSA
Assay [5] addresses T1, Phosphatidylinositol 4,5-bisphosphate 3-kinase catalytic subunit beta isoform. Description: Binding affinity to human PI3Kbeta (118 to 1070 residues) expressed in mammalian expression system by KINOMEscan assay.
For assay [6], the target named is Serine/threonine-protein kinase mTOR (Homo sapiens, UniProt P42345). Description: Binding affinity to human MTOR (1382 to 2549 residues) expressed in mammalian expression system by KINOMEscan assay.
The target of assay [7] is T2, Phosphatidylinositol 4,5-bisphosphate 3-kinase catalytic subunit delta isoform (Homo sapiens, UniProt O00329).
T2 sequence (O00329 whole entry): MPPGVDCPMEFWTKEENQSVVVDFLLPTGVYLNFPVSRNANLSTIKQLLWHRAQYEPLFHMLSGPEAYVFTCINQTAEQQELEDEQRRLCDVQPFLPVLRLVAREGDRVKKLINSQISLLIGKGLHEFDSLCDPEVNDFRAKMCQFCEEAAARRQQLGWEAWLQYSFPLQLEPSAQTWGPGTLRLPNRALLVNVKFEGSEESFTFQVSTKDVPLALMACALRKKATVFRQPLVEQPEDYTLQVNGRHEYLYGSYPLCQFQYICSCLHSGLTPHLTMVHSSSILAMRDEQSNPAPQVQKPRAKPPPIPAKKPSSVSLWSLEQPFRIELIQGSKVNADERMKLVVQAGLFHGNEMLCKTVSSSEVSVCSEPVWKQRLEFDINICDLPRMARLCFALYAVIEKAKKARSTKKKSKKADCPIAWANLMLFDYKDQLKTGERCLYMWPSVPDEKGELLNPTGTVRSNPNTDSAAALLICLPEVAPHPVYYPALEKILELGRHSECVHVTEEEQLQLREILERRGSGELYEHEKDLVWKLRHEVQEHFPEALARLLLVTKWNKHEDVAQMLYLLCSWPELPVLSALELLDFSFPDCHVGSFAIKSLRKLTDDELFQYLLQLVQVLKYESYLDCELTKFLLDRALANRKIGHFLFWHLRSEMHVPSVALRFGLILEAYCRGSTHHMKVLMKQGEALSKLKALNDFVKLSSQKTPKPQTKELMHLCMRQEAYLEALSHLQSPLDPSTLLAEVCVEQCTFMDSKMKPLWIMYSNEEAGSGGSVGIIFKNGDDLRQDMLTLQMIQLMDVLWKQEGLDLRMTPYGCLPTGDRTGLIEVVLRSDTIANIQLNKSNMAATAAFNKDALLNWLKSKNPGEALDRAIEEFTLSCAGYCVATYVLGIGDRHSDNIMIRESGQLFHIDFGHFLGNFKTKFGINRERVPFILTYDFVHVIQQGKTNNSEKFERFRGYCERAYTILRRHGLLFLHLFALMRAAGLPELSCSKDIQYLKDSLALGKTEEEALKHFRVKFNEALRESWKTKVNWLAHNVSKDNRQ
Description: Binding affinity to human PI3Kdelta (108 to 1044 residues) expressed in mammalian expression system by KINOMEscan assay.

Each structure is given as a SMILES string. A value given as a limit tells only on which side of the number the result lay.

T1 sequence (P42338 whole entry, canonical isoform): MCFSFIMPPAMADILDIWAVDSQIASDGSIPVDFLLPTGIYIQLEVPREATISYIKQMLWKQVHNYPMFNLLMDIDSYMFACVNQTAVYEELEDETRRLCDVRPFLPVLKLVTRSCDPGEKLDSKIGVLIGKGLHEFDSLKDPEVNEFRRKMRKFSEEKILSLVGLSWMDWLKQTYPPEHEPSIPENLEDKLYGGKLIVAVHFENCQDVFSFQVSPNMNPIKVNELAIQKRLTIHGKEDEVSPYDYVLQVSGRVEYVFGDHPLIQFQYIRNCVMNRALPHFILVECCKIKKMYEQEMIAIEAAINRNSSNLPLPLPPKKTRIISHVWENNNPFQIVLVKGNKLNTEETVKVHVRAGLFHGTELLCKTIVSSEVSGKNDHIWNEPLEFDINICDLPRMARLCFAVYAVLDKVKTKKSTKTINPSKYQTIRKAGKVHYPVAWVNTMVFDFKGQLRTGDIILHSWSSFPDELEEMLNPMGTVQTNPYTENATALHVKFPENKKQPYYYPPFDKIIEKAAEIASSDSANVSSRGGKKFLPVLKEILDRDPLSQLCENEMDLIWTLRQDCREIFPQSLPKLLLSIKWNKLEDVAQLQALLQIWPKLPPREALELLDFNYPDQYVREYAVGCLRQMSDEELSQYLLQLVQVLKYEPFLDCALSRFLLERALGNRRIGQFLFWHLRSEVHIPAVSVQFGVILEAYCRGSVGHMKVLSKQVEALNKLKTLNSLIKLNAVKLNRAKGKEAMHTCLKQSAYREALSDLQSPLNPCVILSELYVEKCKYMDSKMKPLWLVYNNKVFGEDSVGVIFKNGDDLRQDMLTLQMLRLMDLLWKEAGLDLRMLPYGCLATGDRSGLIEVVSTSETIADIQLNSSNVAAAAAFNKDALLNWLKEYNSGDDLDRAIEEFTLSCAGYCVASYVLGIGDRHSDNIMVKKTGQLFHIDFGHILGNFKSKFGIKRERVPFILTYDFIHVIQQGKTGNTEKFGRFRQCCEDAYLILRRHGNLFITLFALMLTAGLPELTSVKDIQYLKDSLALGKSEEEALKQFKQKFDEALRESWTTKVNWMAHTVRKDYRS
Sequence of Phosphatidylinositol 4,5-bisphosphate 3-kinase catalytic subunit alpha isoform (P42336 whole entry, the tested form may be a part, canonical isoform): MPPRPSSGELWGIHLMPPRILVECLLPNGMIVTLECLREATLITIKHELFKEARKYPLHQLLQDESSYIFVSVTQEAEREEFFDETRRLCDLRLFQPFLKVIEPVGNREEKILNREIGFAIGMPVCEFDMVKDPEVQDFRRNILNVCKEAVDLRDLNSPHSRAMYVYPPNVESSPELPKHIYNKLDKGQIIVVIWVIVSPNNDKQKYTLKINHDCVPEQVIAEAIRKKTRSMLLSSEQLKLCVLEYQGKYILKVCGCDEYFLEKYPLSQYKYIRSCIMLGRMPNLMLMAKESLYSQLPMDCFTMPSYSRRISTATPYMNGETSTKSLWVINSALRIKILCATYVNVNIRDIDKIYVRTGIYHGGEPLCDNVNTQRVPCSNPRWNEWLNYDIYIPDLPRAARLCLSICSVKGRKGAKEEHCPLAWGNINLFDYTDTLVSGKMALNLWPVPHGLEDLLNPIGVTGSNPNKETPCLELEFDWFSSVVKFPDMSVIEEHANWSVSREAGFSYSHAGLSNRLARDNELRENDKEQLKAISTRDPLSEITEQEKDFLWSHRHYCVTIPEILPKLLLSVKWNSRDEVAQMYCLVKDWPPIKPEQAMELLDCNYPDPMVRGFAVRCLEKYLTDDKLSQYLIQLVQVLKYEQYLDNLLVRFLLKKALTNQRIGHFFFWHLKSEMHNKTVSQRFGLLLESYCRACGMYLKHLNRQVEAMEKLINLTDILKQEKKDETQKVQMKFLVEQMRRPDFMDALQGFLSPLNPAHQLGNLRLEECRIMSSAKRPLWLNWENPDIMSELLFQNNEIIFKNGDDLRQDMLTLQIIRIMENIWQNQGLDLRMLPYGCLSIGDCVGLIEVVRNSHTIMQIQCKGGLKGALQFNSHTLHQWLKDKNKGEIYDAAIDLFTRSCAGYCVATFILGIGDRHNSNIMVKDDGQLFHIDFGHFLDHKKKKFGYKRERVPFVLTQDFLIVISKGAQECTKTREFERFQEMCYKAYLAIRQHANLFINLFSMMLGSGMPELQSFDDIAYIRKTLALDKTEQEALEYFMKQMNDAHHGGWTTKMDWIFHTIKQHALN

`Cc1c(Cc2c(CO)nc3c(N)cc(N4CCOCC4)nn23)cccc1C(F)(F)F` [listing 1 of 2 here]: the IC50 in assay [1] is 38 nM; in assay [2] it was 46 nM. The Kd in assay [3] was above 30200 nM; in assay [4] it was above 10000 nM.

On to `Cc1c(Cc2c(CN(C)CCS(C)(=O)=O)nc3c(N)cc(N4CCOCC4)nn23)cccc1C(F)(F)F`, for which the half-maximal inhibitory concentration (IC50) turned out to be 41 nM in assay [1] and 34 nM in assay [2]. For the same compound, the Kd in assay [4] was above 30200 nM.

`CC(=O)NCc1nc2c(-c3cnc[nH]3)cc(N3CCOCC3)nn2c1Cc1cccc(C(F)(F)F)c1C`: the results for the IC50 in assay [1] and in assay [2] were 11 nM and 33 nM, respectively. Besides, the equilibrium dissociation constant (Kd) was 2 nM in assay [5]; above 30200 nM in assay [3]; above 30200 nM in assay [4]; above 30200 nM in assay [6]; 59 nM in assay [7].

Take `Cc1c(Cc2c(CNCCS(C)(=O)=O)nc3c(N)cc(N4CCOCC4)nn23)cccc1C(F)(F)F`: the figures for the IC50 in assay [1] and in assay [2] were 186 nM and 138 nM, respectively. The Kd in assay [4] is above 30200 nM.

With `Cc1nc2c(C(N)=O)cc(N3CCOCC3)nn2c1Cc1cccc(C(F)(F)F)c1C`, the values for the 50% inhibitory concentration (IC50) in assay [1] and in assay [2] were above 513 nM and 501 nM, respectively. Also, the Kd in assay [3], in assay [4] and in assay [6] was above 30200 nM throughout.

On to `Cc1nc2c(-c3cnc[nH]3)cc(N3CCOCC3)nn2c1Nc1cccc(C(F)(F)F)c1C`, for which the IC50 in assay [1] amounted to 8 nM; in assay [2], 12 nM. Besides, the Kd was found to be 2.6 nM in assay [5]; 912 nM in assay [3]; 2290 nM in assay [4]; 4680 nM in assay [6]; 49 nM in assay [7].

Consider `Cc1nc2c(N)cc(N3CCOCC3)nn2c1Nc1cccc(C(F)(F)F)c1CN1CC(O)C1`, for which the IC50 in assay [1] amounted to 33 nM; in assay [2], 44 nM. The Kd is 19600 nM in assay [4], above 30200 nM in assay [6] and 73 nM in assay [7].

As to `Cc1nc2c(N)cc(N3CCOCC3)nn2c1Nc1cccc(C(F)(F)F)c1CN1CCN(C)CC1`, the IC50 was 17 nM in assay [1] and 21 nM in assay [2].

On to `Cc1c(Cc2c(CO)nc3c(N)cc(N4CCOCC4)nn23)cccc1C(F)(F)F` [listing 2 of 2 here], for which the figures for the IC50 in assay [1] and in assay [2] were 41 nM and 52 nM, respectively.

For `Cc1nc2c(C(=O)O)cc(N3CCOCC3)nn2c1Cc1cccc(C(F)(F)F)c1C`, the half-maximal inhibitory concentration (IC50) in assay [1] was 316 nM; in assay [2], 513 nM.

Consider `Cc1c(Cc2c(CO)nc3c(C(=O)O)cc(N4CCOCC4)nn23)cccc1C(F)(F)F`, for which the IC50 in assay [1] and in assay [2] was above 513 nM throughout. In assay [4], this compound gave a dissociation constant Kd above 15100 nM.

For the compound `Cc1nc2c(N)cc(N3CCOCC3)nn2c1Cc1cccc(C(F)(F)F)c1C`, the figures for the IC50 in assay [1] and in assay [2] were 17 nM and 12 nM, respectively. Further, the Kd is 6 nM in assay [5]; 5130 nM in assay [3]; 11400 nM in assay [4]; 20300 nM in assay [6]; 171 nM in assay [7].

Turning to `Cc1nc2c(-c3cnc[nH]3)cc(N3CCOCC3)nn2c1Nc1cccc(C(F)(F)F)c1CN1CC(O)C1`, the IC50 in assay [1] amounted to 17 nM; in assay [2], 174 nM.

On to `Cc1nc2c(-c3cnc[nH]3)cc(N3CCOCC3)nn2c1Cc1cccc(C(F)(F)F)c1C`, for which the IC50 was found to be 48 nM in assay [1] and 59 nM in assay [2].

Take `Cc1c(Nc2c(CO)nc3c(N)cc(N4CCOC(CO)C4)nn23)cccc1C(F)(F)F` (stereo in doubt; 65): the results for the IC50 in assay [1] and in assay [2] were 43 nM and 79 nM, respectively. Moreover, the Kd in assay [5] worked out at 1.3 nM; in assay [3], 6610 nM; in assay [4], 692 nM; in assay [6], 355 nM; in assay [7], 138 nM.

For the compound `Cc1c(Nc2c(CO)nc3c(N)cc(N4CCOC(CO)C4)nn23)cccc1C(F)(F)F` (stereo in doubt; 66), the IC50 in assay [1] is 513 nM; in assay [2] it was above 513 nM. Besides, the Kd in assay [5] is 138 nM; in assay [3] it was above 30200 nM; in assay [4], 13500 nM; in assay [6], 1380 nM; in assay [7], 11000 nM.

For orientation: IC50 means the concentration needed to halve the response being measured. The term Kd denotes the concentration at which binding is half-saturated. A high value points to lower affinity.
